We go through one compound from US7544814B2, “[3.2.0] Heterocyclic compounds and methods of using the same” (Nereus Pharmaceuticals, Inc., priority 2004, dated 2009).

Data set [1] concerns RPMI 8226. Put plainly: cells. The settings on record: for EC50: Homo sapiens. As to the method: RPMI 8226 (CCL-155), HT-29 (HTB-38), and B16-F10 (CRL-6475) cells were purchased from ATCC. RPMI 8226 cells were maintained in RPMI 1640 media supplemented with 10% (v/v) FBS, 2 mM L-glutamine, 1 mM sodium pyruvate and Penicillin/Streptomycin at 100 IU/ml and 100 μg/ml, respectively. HT-29 cells were maintained in McCoys 5A supplemented with 10% (v/v) FBS, 2 mM L-glutamine, 1 mM sodium pyruvate, 1% (v/v) non-essential amino acids, 10 mM HEPES and Penicillin/Streptomycin at 100 IU/ml and 100 μg/ml, respectively. B16-F10 cells were maintained in DMEM supplemented with 10% (v/v) FBS, 2 mM L-glutamine, 10 mM HEPES and Penicillin/Streptomycin at 100 IU/ml and 100 μg/ml, respectively.
RPMI 8226 cells were seeded at 2×10^4 cells/well in 90 μl RPMI media containing 10% (v/v) FBS or 1% (v/v) FBS into 96 well black-walled, clear-bottom tissue culture plates. […] Formulae II-16, II-17 and Formula II-18 were serially diluted in media containing 1% or 10% FBS and added in triplicate to the test wells. […] The final concentration of Formula II-18 ranged from 2 μM to 630 pM.

Data set [2] addresses T1, chymotrypsin-like activity of 20S proteasomes in PC-3 cells (Homo sapiens, UniProt P28074).
T1 construct: endogenous in cells; host or cells: PC-3 (ATCC CRL-1435)
Put plainly: Chymotrypsin-like activity of 20S proteasomes in lysates of treated PC-3 cells. Type of data set: cell-based. The conditions noted are these: for % inhibition of the chymotrypsin-like activity of 20S proteasomes in PC-3 cell lysates: 1 hr incubation. As to the method: PC-3 (ATCC, CRL-1435), the human prostate cancer cell line, was cultured in F12K medium supplemented with 2 mM L-glutamine, 100 units/ml penicillin, 100 μg/ml streptomycin and 10% heat inactivated fetal bovine serum at 37° C., 5% CO2 and 95% humidified air. […] DMSO was used as the vehicle control at a final concentration of 0.1%. Following 1 hr incubation of PC-3 cells with the compounds, the cells were washed 3× with ice-cold 1× Dulbecco's Phosphate-Buffered Saline (DPBS, Mediatech, Herndon, Va.). […] Cell debris was pelleted by centrifugation at 14,000 rpm for 10 min, 4° C. and supernatants (=cell lysates) were transferred to a new tube. Protein concentration was determined by the BCA protein assay kit (Pierce Biotechnology, Rockford, Ill.). […] The released coumarin (AMC) was measured fluorometrically by using λex=390 nm and λem=460 nm. The assay was performed in a microtiter plate (Corning 3904) and followed kinetically with measurements every five minutes for 2 hr. The total amount of protein used for each assay was 20 μg. The final concentration of Suc-LLVY-AMC and DMSO was 20 μM and 0.2%, respectively. Results are presented as the percent inhibition of the 20S proteasome chymotrypsin-like activity relative to the DMSO control.

In data set [3] the test system is B16-F10. Put plainly: Growth inhibition of B16-F10 in media containing 1% or 10% FBS. It is filed as cell-based, mouse.
The target in data set [4] is T2, chymotrypsin-like activity of 20S proteasomes in RPMI 8226 cells (Homo sapiens, UniProt P28074).
T2 construct: added to 2.5×10^5/ml RMPI 8226 cells; endogenous in cells; host or cells: RPMI 8226 (ATCC CCL-155)
T2 sequence (P28074 60-263): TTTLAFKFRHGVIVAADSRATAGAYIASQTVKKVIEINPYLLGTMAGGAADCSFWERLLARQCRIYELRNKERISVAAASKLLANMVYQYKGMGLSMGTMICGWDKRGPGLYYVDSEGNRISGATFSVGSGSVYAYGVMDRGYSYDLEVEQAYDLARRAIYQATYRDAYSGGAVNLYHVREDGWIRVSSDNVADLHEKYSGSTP
Kind of data set: Chymotrypsin-like activity of 20S proteasomes in lysates of treated RPMI 8226 cells. It is filed as cell-based. As to the method:
RPMI 8226 (ATCC, CCL-155), the human multiple myeloma cell line, was cultured in RPMI 1640 medium supplemented with 2 mM L-glutamine, 100 units/ml penicillin, 100 μg/ml streptomycin, 1 mM sodium pyruvate and 10% heat inactivated fetal bovine serum at 37° C., 5% CO2 and 95% humidified air. […] DMSO was used as the vehicle control at a final concentration of 0.1%. Following 1 hr incubation of RMPI 8226 cells with the compounds, the cells were pelleted by centrifugation at 2,000 rpm for 10 sec at room temperature and washed 3× with ice-cold 1× Dulbecco's Phosphate-Buffered Saline (DPBS, Mediatech, Herndon, Va.). DPBS washed cells were lysed on ice for 15 min in lysis buffer (20 mM HEPES, 0.5 mM EDTA, 0.05% Triton X-100, pH 7.3) supplemented with protease inhibitor cocktail (Roche Diagnostics, Indianapolis, Ind.). Cell debris was pelleted by centrifugation at 14,000 rpm for 10 min, 4° C. and supernatants (=cell lysates) were transferred to a new tube. Protein concentration was determined by the BCA protein assay kit (Pierce Biotechnology, Rockford, Ill.). […] The released coumarin (AMC) was measured fluorometrically by using λex=390 nm and λem=460 nm. The assay was performed in a microtiter plate (Corning 3904) and followed kinetically with measurements every five minutes for 2 hr. The total amount of protein used for each assay was 20 μg. The final concentration of Suc-LLVY-AMC and DMSO was 20 μM and 0.2%, respectively.

Data set [5] concerns HT-29. Put plainly: Growth inhibition of HT-29 in media containing 1% or 10% FBS. It is filed as cell-based, human. The conditions noted are these: for EC50: Homo sapiens, HT-29, read-out: HT-29, EC50 (nM) mean ± SD.
Data set [6] concerns NF-κB. Kind of data set: NF-κB-mediated luciferase reporter gene assay, HEK293 NF-κB/Luc cells, TNF-α stimulation. The conditions noted are these: Homo sapiens, HEK293, Table 12; read-out: NF-κB EC50. It is filed as cell-based, human. The method in brief:
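Cells seeded at 1.5×10^4/well in phenol-red free DMEM, pretreated 1 h with 8-point half-log compound dilutions (DMSO stocks), then stimulated with TNF-α (10 μl of 50 ng/ml solution) for 6 h. Luciferase read as RLU after 10 min with Steady Lite reagent at room temperature.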

The mark [7] stands for this setting: PC-3, read-out: % inhibition of the chymotrypsin-like activity of 20S proteasomes in PC-3 cell lysates.
The mark [8] stands for this setting: RPMI-8226, read-out: % inhibition of the chymotrypsin-like activity of 20S proteasomes in RPMI 8226 cell lysates.

Molecules are shown by their SMILES. Like-named read-outs stand apart in the source and are kept apart here.

As to `C[C@@]12OC(=O)[C@]1([C@@H](O)[C@@H]1C=CCCC1)NC(=O)[C@@H]2CCCl` [Formula II-16], in data set [1] (1% or 10% FBS), the “cytotoxicity against RPMI 8226 in media containing 1% or 10% FBS, in words” value is “cytotoxic”. Also, the EC50 in data set [1] (RPMI-8226, read-out: 1% FBS, EC50, RPMI 8226, media containing 1% FBS, single experiments) is 6.2 nM; in data set [1] (RPMI-8226, read-out: 10% FBS, EC50, RPMI 8226, media containing 10% FBS, single experiments), 12 nM; in data set [1] (RPMI-8226, read-out: Mean 10% FBS, EC50, RPMI 8226, media containing 10% FBS, mean), 11 nM; in data set [3] (Mus musculus, B16-F10, read-out: B16-F10, EC50 (nM) mean ± SD, media containing 1% FBS), 18 ± 9 nM; in data set [5] (media containing 1% FBS), 16 ± 5 nM; in data set [5] (media containing 10% FBS) it was 23 ± 10 nM. Moreover, the EC50 in data set [6] came out at 11 ± 3 nM. Further, the “% inhibition of the chymotrypsin-like activity of 20S proteasomes in PC-3 cell lysates” value is 69% in data set [2] (5 nM) and “completely inhibit” in data set [2] (50 nM, 0.05 µM). The results for the inhibition at 0.005 µM in data set [2] (setting [7]) and in data set [4] (setting [8]) were 69% and 85 ± 7%, respectively. Further, the inhibition at 0.05 µM in data set [2] (setting [7]) is 98%; in data set [4] (setting [8]), 97%. Moreover, in data set [3] (1% or 10% FBS), the “cytotoxicity against B16-F10 in media containing 1% or 10% FBS, in words” value was “cytotoxic”. In addition, in data set [4] (100 nM, 1 hr incubation, mean ± SD, n = 3, 0.1 µM), the “% inhibition of the chymotrypsin-like activity of 20S proteasomes in RPMI 8226 cell lysates” value is on record as “completely inhibit”. Moreover, the inhibition at 0.001 µM in data set [4] (setting [8]) turned out to be 30 ± 7%. In addition, in data set [4] (setting [8]), the inhibition at 0.01 µM worked out at 94 ± 3%. In addition, the inhibition at 0.1 µM in data set [4] (setting [8]) turned out to be 98 ± 1%. The “cytotoxicity against HT-29 in media containing 1% or 10% FBS, in words” value in data set [5] (1% or 10% FBS) is on record as “cytotoxic”.
